Data on 1 compound can be found in PMC7320145, “Substrate Channeling via a Transient Protein-Protein Complex: The case of D-Glyceraldehyde-3-Phosphate Dehydrogenase and L-Lactate Dehydrogenase” (Scientific Reports, 2020).

For experiment [1], the target named is T1, rmGAPDH (rabbit muscle GAPDH) (Oryctolagus cuniculus, UniProt P46406).
T1 construct: natural full-length enzyme from rabbit muscle, homotetramer; purified in-house by established protocols or purchased from Sigma; apo-enzyme
Description: fluorescence titration, average of four read-outs (protein quenching, NADH quenching, FRET, anisotropy). The following applies: in terms of NADH binding sites on each tetramer; average over sites (enzyme with negative cooperativity). From the text: fluorescence titration, average of four read-outs (protein quenching, NADH quenching, FRET, anisotropy) on rmGAPDH (rabbit muscle GAPDH)

For experiment [2], the target named is T2, byGAPDH (baker's yeast GAPDH).
T2 construct: gene TDH3; purified in-house or purchased from Sigma; apo-enzyme
Described as above. The following applies: in terms of NADH binding sites on each tetramer. Also on record: species or system Saccharomyces cerevisiae. An excerpt:
fluorescence titration, average of four read-outs (protein quenching, NADH quenching, FRET, anisotropy) on byGAPDH (baker's yeast GAPDH)

T1 sequence (P46406 whole entry): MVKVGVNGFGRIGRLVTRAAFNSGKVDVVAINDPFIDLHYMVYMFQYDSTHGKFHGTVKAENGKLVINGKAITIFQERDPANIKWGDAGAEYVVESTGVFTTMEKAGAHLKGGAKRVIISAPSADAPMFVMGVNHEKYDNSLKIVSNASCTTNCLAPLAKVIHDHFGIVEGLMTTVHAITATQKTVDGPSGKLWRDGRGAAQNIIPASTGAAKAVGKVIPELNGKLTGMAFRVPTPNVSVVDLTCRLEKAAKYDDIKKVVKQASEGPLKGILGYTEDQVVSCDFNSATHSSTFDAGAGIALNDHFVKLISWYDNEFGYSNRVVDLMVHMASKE

Consider `NC(=O)C1=CN([C@@H]2O[C@H](COP(=O)(O)OP(=O)(O)OC[C@H]3O[C@@H](n4cnc5c(N)ncnc54)[C@H](O)[C@@H]3O)[C@@H](O)[C@H]2O)C=CC1` [NADH], for which the “rmGAPDH-NADH KD fluorescence measurements” value in experiment [1] worked out at 0.8 ± 0.06 micro Molar. Also, in experiment [2], the “byGAPDH-NADH KD fluorescence measurements” value is on record as 8.2 ± 0.5 micro Molar.
